Source: patent EP4428124A1, “MODULATORS OF SORTILIN ACTIVITY” (Vesper Bio Aps, priority 2023, dated 2024)
Structures can show the parent of a compound that is named as a salt.

What was measured:
[1] = biological target: T1, h-Sortilin (Homo sapiens, UniProt Q99523); assay: Neurotensin scintillation proximity assay (SPA); type: binding; conditions: displacement of 5 nM [3H]-Neurotensin, 150 nM 6his-Sortilin; average of at least 2 determinations
T1 sequence (Q99523 78-831): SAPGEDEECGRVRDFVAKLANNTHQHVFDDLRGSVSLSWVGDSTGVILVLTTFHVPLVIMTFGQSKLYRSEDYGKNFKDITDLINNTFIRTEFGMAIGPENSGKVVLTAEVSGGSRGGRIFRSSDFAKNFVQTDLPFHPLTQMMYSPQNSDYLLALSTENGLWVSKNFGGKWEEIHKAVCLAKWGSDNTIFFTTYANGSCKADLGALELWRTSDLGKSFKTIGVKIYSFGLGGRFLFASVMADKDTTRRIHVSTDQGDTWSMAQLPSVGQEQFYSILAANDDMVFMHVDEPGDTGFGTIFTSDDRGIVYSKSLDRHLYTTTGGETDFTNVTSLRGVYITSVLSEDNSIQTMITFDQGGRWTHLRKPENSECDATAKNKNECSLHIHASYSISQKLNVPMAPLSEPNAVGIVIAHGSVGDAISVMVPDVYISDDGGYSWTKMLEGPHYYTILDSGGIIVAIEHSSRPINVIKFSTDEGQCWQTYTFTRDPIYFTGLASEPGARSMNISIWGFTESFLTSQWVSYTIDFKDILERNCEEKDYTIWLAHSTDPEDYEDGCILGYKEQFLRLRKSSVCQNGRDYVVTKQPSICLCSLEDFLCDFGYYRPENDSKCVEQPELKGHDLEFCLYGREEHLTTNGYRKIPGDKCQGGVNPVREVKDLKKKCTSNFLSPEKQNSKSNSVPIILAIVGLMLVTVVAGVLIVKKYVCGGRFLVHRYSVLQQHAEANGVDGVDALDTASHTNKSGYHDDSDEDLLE
Method: NTS, which is a 13 amino acid neuropeptide, is a sortilin ligand. […] Compound affinity was determined by measuring the displacement of [^3H]-neurotensin binding to h-Sortilin in SPA format. Total volume of 40 µl in 50 mM HEPES pH 7.4 assay buffer containing 100 mM NaCl, 2.0 mM CaCl2, 0.1 % BSA and 0.1 % Tween-20. Compound pre-incubation for 30 minutes at room temperature with 150 nM of 6his-Sortilin before 5 nM [3H]-Neurotensin and Ni chelate imaging beads (Perkin Elmer) were added, after 6 hours the plate was read on a ViewLux with 360 s exposure time. Dose-response evaluation of compounds was performed with 8 concentrations of drugs (covering 3 decades). IC50 values were calculated by nonlinear regression using the sigmoid concentration-response (variable slope) using CDD Vault software. All values reported are average of at least 2 determinations.

[2] = biological target: T2, Human (6-His)Sortilin (Homo sapiens, UniProt Q99523); assay: Human Sortilin GCI (Grating-Coupled Interferometry) binding assay; conditions: immobilised Human (6-His)Sortilin, Creoptix WAVE-RAPID, single concentration, 1:1 kinetic model; read-out: h-Sortilin GCI KD
T2 construct: purchased RnD Systems
T2 sequence (Q99523 78-831): T1 sequence (Q99523 78-831)

[3] = biological target: T3, Sortilin receptor at the cell surface (Homo sapiens, UniProt Q99523); assay: Progranulin cell surface engagement assay; type: cell-based; conditions: displacement of 100 nM PGRN-AF647, HEK293 engineered to express sortilin, on ice; average of at least 2 determinations
T3 construct: expressed in transfected cells; host or cells: HEK293
T3 sequence (Q99523 78-831): T1 sequence (Q99523 78-831)
Method: PGRN is a sortilin ligand.
Compound affinity was determined by measuring the ability of compounds to displace the binding of Progranulin-Alexa Fluor 647 (PGRN-AF647) binding to the Sortilin receptor at the cell surface. HEK293 engineered to express sortilin were pre-incubated with compound for 30 minutes on ice in 20 µl assay buffer containing 1% BSA in PBS. Dose-response evaluation of compounds was performed with 10 concentrations of drugs (10 point half log curve). PGRN-AF647 was added at 100 nM concentration in 20 µl assay buffer for 2 hours on ice. Data was acquired using iQue flow cytometer (IntelliCyt). IC50 values were calculated by nonlinear regression using the sigmoid concentration-response (variable slope) using CDD Vault software. All values reported are average of at least 2 determinations.

Structure (SMILES)	IC50 [1] [nM]	Kd [2] [nM]	IC50 [3] [nM]
CC(C)(C)CCC(C)(NCc1ccccc1)C(=O)O (racemic) [Example 1, rac-2-benzylamino-2,5,5-trimethylhexanoic acid]	2500	621	–
COc1cccc(CNC(C)(CCC(C)(C)C)C(=O)O)c1 (racemic) [Example 4, 2-((3-methoxybenzyl)amino)-2,5,5-trimethylhexanoic acid hydrochloride]	4020	–	–
COc1cccc(CNC(C)(CCC(C)C)C(=O)O)c1 (racemic) [Example 7, 2-{[(m-methoxyphenyl)methyl]amino}-2,5-dimethylhexanoic acid]	–	1270	–
CC(C)(C)CCC(C)(NCCCc1ccccc1)C(=O)O (racemic) [Example 9, 2,5,5-trimethyl-2-(3-phenylpropylamino)hexanoic acid]	9740	–	–
CC(C)(C)CC[C@](C)(NCc1ccccc1)C(=O)O [Example 2, (S)-2-benzylamino-2,5,5-trimethylhexanoic acid]	2970	393	–
COc1cccc(CN[C@@](C)(CCC(C)(C)C)C(=O)O)c1 [Example 5, (S)-2-((3-methoxybenzyl)amino)-2,5,5-trimethylhexanoic acid hydrochloride]	1330	–	–

Second part, the molecule after the results:

IC50 [1] [nM]	Kd [2] [nM]	IC50 [3] [nM]	Structure (SMILES)
840	4220	–	CC(C)(C)CCC(C)(NCc1cncnc1)C(=O)O (racemic) [Example 8, 2,5,5-trimethyl-2-{[(5-pyrimidinyl)methyl]amino}hexanoic acid]
383	804	680	CC(C)(C)CC[C@](C)(NCc1cncnc1)C(=O)O (single isomer, unassigned) [Example 10]
–	21400	–	CC(C)(C)CC[C@@](C)(NCc1ccccc1)C(=O)O [Example 3, (R)-2-benzylamino-2,5,5-trimethylhexanoic acid]
–	73500	–	CC(C)(C)CCC(C)(NCc1cncnc1)C(=O)O (stereo not drawn) [Example 11]
